Source: ChEMBL document CHEMBL4665886, “Assessing different thiazolidine and thiazole based compounds as antileishmanial scaffolds” (Bioorg Med Chem Lett, 2020)

Legend:
BJ = experiment: Cytotoxicity against human BJ cells after 24 hrs by redox-sensitive dye based fluorescent assay; assay type: cell-based
[1] = tested on: Trypanosoma brucei gambiense; experiment: Antitrypanosomal activity against bloodstream form of Trypanosoma brucei gambiense Feo assessed as reduction in parasite growth; assay type: functional, organism-based
Leishmania major = experiment: Antileishmanial activity against Leishmania major FV1 assessed as reduction in parasite growth; assay type: functional, organism-based
MRC5 = experiment: Cytotoxicity against human MRC5 cells after 24 hrs by redox-sensitive dye based fluorescent assay; assay type: cell-based; details: MRC5, 24 h
[2] = Therapeutic index, ratio of average IC50 for human MRC5 and BJ cells to IC50 for antileishmanial activity against Leishmania major; assay type: toxicity; details: MRC5 and BJ cells (average IC50) versus Leishmania major, read-out: TI
[3] = tested on: Trypanosoma brucei brucei; experiment: Antitrypanosomal activity against bloodstream form of Trypanosoma brucei brucei 90-13 assessed as reduction in parasite growth; assay type: functional, organism-based

In the case of `C=CCN1C(=O)C(CC(=O)c2ccc(F)cc2)S/C1=N\N=C\c1ccccc1` (stereo not given), the IC50 (BJ) is reported as 21.5 µM, the IC50 [1] is reported as greater than 50 µM and the IC50 (Leishmania major) is reported as 47.5 µM. The IC50 (MRC5) was 20.1 µM, the selectivity ratio [2] was 0.45 and the IC50 [3] was greater than 50 µM.
Work on `CCC1S/C(=N\N=C\c2c(-c3ccc(Cl)cc3)[nH]c3ccccc23)NC1=O` (stereo not given) yielded an IC50 (BJ) of 7.45 µM, an IC50 (Leishmania major) of 22.7 µM and an IC50 (MRC5) of 8.8 µM. It also gave a selectivity ratio [2] of 0.36.
Work on `O=C(CC1S/C(=N\N=C\c2c(-c3ccccc3)[nH]c3ccccc23)NC1=O)c1ccccc1` (stereo not given) yielded an IC50 (BJ) greater than 50 µM, an IC50 (Leishmania major) of 9.14 µM and an IC50 (MRC5) greater than 50 µM. The selectivity ratio [2] was greater than 5.47.
`CCOC(=O)c1sc(N/N=C/c2c(-c3ccc([N+](=O)[O-])cc3)[nH]c3ccccc23)nc1C` gave an IC50 (BJ) of 50 µM, an IC50 (Leishmania major) of 7.22 µM and an IC50 (MRC5) of 23.5 µM. It also gave a selectivity ratio [2] of 5.09.
`O=C1CS/C(=N\N=C\c2c(-c3ccc(Cl)cc3)[nH]c3ccccc23)N1` showed an IC50 (BJ) greater than 50 µM, an IC50 (Leishmania major) of 7.01 µM and an IC50 (MRC5) greater than 50 µM. The selectivity ratio [2] was greater than 7.13.
`CCC1S/C(=N\N=C\c2c(-c3ccc(Br)cc3)[nH]c3ccccc23)NC1=O` (stereo not given) gave an IC50 (BJ) of 7.45 µM, an IC50 (Leishmania major) of 18.8 µM and an IC50 (MRC5) of 5.91 µM. For the same compound, the selectivity ratio [2] was 0.36.
For `O=C1N/C(=N/N=C/c2c(-c3ccc(Br)cc3)[nH]c3ccccc23)SC1CCO` (stereo not given), the IC50 (BJ) was 29.2 µM, the IC50 (Leishmania major) was 12.8 µM and the IC50 (MRC5) was 15.9 µM. It also gave a selectivity ratio [2] of 1.75.
`C=CCSc1nn2c(/C=N/N=C3/NC(=O)C(CCOC(C)=O)S3)c(-c3ccccc3)nc2s1` (stereo not given) gave an IC50 (BJ) of 34.9 µM, an IC50 (Leishmania major) of 9.81 µM and an IC50 (MRC5) of 23.2 µM. The selectivity ratio [2] was 2.96.
Compound `O=C(CC1S/C(=N\N=C\c2c(-c3ccccc3)[nH]c3ccccc23)NC1=O)c1ccc(F)cc1` (stereo not given) has an IC50 (BJ) greater than 50 µM, an IC50 (Leishmania major) of 8.09 µM and an IC50 (MRC5) of 49.8 µM. The selectivity ratio [2] was greater than 6.18.
Compound `CC(=O)OCCC1S/C(=N\N=C\c2c(-c3ccccc3)[nH]c3ccccc23)NC1=O` (stereo not given) has an IC50 (BJ) of 37.1 µM, an IC50 (Leishmania major) of 3.51 µM and an IC50 (MRC5) of 42.8 µM. The selectivity ratio [2] was 11.3.
Compound `CC1S/C(=N\N=C\c2c(-c3ccc(Br)cc3)[nH]c3ccccc23)NC1=O` (stereo not given) has an IC50 (BJ) greater than 50 µM, an IC50 (Leishmania major) of 18.6 µM and an IC50 (MRC5) greater than 50 µM. It also gave a selectivity ratio [2] greater than 2.7.
Compound `C=CCSc1nn2c(C=O)c(-c3ccccc3)nc2s1` has an IC50 (BJ) greater than 50 µM, an IC50 [1] of 2.34 µM and an IC50 (Leishmania major) of 8.94 µM. The IC50 (MRC5) was 35.4 µM and the selectivity ratio [2] was greater than 4.78.
`O=C1N/C(=N/N=C/c2c(-c3ccc(Cl)cc3)[nH]c3ccccc23)SC1CCO` (stereo not given) gave an IC50 (BJ) of 22.4 µM, an IC50 (Leishmania major) of 15.7 µM and an IC50 (MRC5) of 13.2 µM. For the same compound, the selectivity ratio [2] was 1.13.
`CCC1S/C(=N\N=C\c2c(-c3ccc([N+](=O)[O-])cc3)[nH]c3ccccc23)NC1=O` (stereo not given) showed an IC50 (BJ) of 29.8 µM, an IC50 (Leishmania major) of 14.7 µM and an IC50 (MRC5) of 25.2 µM. It also gave a selectivity ratio [2] of 1.87.
With `CCC1S/C(=N\N=C\c2c(-c3ccccc3)[nH]c3ccccc23)NC1=O` (stereo not given) the IC50 (BJ) was greater than 50 µM, the IC50 (Leishmania major) was 1.12 µM and the IC50 (MRC5) was greater than 50 µM. It also gave a selectivity ratio [2] greater than 44.6.
`O=C1CS/C(=N\N=C\c2c(-c3ccccc3)[nH]c3ccccc23)N1` gave an IC50 (BJ) greater than 50 µM, an IC50 (Leishmania major) of 1.73 µM and an IC50 (MRC5) greater than 50 µM. For the same compound, the selectivity ratio [2] was greater than 29.1.
Work on `CC1S/C(=N\N=C\c2c(-c3ccccc3)[nH]c3ccccc23)NC1=O` (stereo not given) yielded an IC50 (BJ) greater than 50 µM, an IC50 (Leishmania major) of 1.01 µM and an IC50 (MRC5) greater than 50 µM. For the same compound, the selectivity ratio [2] was greater than 48.1.
`CCOC(=O)c1sc(N/N=C/c2c(-c3ccc(Cl)cc3)[nH]c3ccccc23)nc1C` showed an IC50 (BJ) greater than 50 µM, an IC50 (Leishmania major) of 12 µM and an IC50 (MRC5) of 25.2 µM. It also gave a selectivity ratio [2] greater than 2.49.
Compound `CCOC(=O)C(Cc1ccccc1)N1C(=O)/C(=C/Nc2ncc(Cc3ccc(Cl)cc3Cl)s2)SC1=S` (stereo not given) has an IC50 (BJ) greater than 50 µM, an IC50 [1] of 1.85 µM and an IC50 (Leishmania major) of 15.2 µM. The IC50 (MRC5) was greater than 50 µM, the selectivity ratio [2] was greater than 3.3 and the IC50 [3] was 2.36 µM.
Compound `C[C@@H]1CC[C@@H]2[C@@H](C1)c1sc(=O)n(CC(=O)Nc3ccccc3)c1SC2(C)C` has an IC50 (BJ) greater than 50 µM, an IC50 (Leishmania major) of 8.68 µM and an IC50 (MRC5) greater than 50 µM. It also gave a selectivity ratio [2] greater than 5.76 and an IC50 [3] of 10.2 µM.
In the case of `O=C(CC1S\C(=N/N=C\C=C\c2ccccc2)N(Cc2ccco2)C1=O)Nc1cccc(C(F)(F)F)c1` (stereo not given), the IC50 (BJ) is reported as 15.6 µM, the IC50 [1] is reported as greater than 50 µM and the IC50 (Leishmania major) is reported as 18.4 µM. It also gave an IC50 (MRC5) of 12 µM, a selectivity ratio [2] of 0.75 and an IC50 [3] greater than 50 µM.
In the case of `O=C1CS/C(=N/N=C/c2c(-c3ccc(Cl)cc3)[nH]c3ccccc23)N1Cc1ccco1`, the IC50 (BJ) is reported as 8.07 µM, the IC50 [1] is reported as 7.31 µM and the IC50 (Leishmania major) is reported as 12.6 µM. For the same compound, the IC50 (MRC5) was 10.8 µM and the selectivity ratio [2] was 0.75.
Work on `C[C@@H]1CC[C@@H]2[C@@H](C1)c1sc(=O)n(CC(=O)Nc3ccc(S(N)(=O)=O)cc3)c1SC2(C)C` yielded an IC50 (BJ) greater than 50 µM, an IC50 (Leishmania major) of 19.8 µM and an IC50 (MRC5) greater than 50 µM. The selectivity ratio [2] was greater than 2.53 and the IC50 [3] was 14.2 µM.
`C[C@@H]1CC[C@@H]2[C@@H](C1)c1sc(=O)n(CC(=O)Nc3ccccc3C(F)(F)F)c1SC2(C)C` showed an IC50 (BJ) greater than 50 µM, an IC50 (Leishmania major) of 18 µM and an IC50 (MRC5) greater than 50 µM. For the same compound, the selectivity ratio [2] was greater than 2.78 and the IC50 [3] was 8.5 µM.
`C=CCN1C(=O)C(CC(=O)c2ccc(F)cc2)S/C1=N\N=C1\CC2CCC1(C)C2(C)C` (stereo not given) gave an IC50 (BJ) greater than 50 µM, an IC50 [1] greater than 50 µM and an IC50 (Leishmania major) of 15.3 µM. It also gave an IC50 (MRC5) greater than 50 µM, a selectivity ratio [2] greater than 3.28 and an IC50 [3] greater than 50 µM.
With `C[C@@H]1CC[C@@H]2[C@@H](C1)c1sc(=O)n(CCC#N)c1SC2(C)C` the IC50 (BJ) was greater than 50 µM, the IC50 (Leishmania major) was 14.8 µM and the IC50 (MRC5) was greater than 50 µM. The selectivity ratio [2] was greater than 3.38.
`CCOC(=O)C(Cc1ccccc1)N1C(=O)/C(=C/Nc2nccs2)SC1=S` (stereo not given) showed an IC50 (BJ) greater than 50 µM, an IC50 [1] of 13.4 µM and an IC50 (Leishmania major) of 28.8 µM. It also gave an IC50 (MRC5) greater than 50 µM, a selectivity ratio [2] greater than 1.73 and an IC50 [3] of 9.65 µM.
`CCc1nn2c(C=O)c(-c3ccc([N+](=O)[O-])cc3)nc2s1` showed an IC50 (BJ) greater than 50 µM, an IC50 (Leishmania major) of 30.4 µM and an IC50 (MRC5) greater than 50 µM. For the same compound, the selectivity ratio [2] was greater than 1.65.
Work on `C[C@@H]1CC[C@@H]2[C@@H](C1)c1sc(=O)n(CC(=O)Nc3cccc(C(F)(F)F)c3)c1SC2(C)C` yielded an IC50 (BJ) greater than 50 µM, an IC50 (Leishmania major) of 14.4 µM and an IC50 (MRC5) greater than 50 µM. It also gave a selectivity ratio [2] greater than 3.47 and an IC50 [3] of 2.97 µM.
In the case of `C[C@@H]1[C@H](O)[C@@H](C)/C=C/C=C/C=C/C=C/C=C/C=C/C=C/[C@H](O[C@@H]2O[C@H](C)[C@@H](O)[C@H](N)[C@@H]2O)C[C@@H]2O[C@](O)(C[C@@H](O)C[C@@H](O)[C@H](O)CC[C@@H](O)C[C@@H](O)CC(=O)O[C@H]1C)C[C@H](O)[C@H]2C(=O)O` [AMPHOTERICIN B], the IC50 (BJ) is reported as greater than 50 µM, the IC50 (Leishmania major) is reported as 0.5 µM and the IC50 (MRC5) is reported as greater than 50 µM. It also gave a selectivity ratio [2] greater than 100.
With `CCCCCCCCCCCCCCCCOP(=O)([O-])OCC[N+](C)(C)C` [MILTEFOSINE] the IC50 (BJ) was greater than 50 µM, the IC50 (Leishmania major) was 8.18 µM and the IC50 (MRC5) was greater than 50 µM. The selectivity ratio [2] was greater than 6.11.
